Read-outs that look alike come from different tables or passages of the source.
What was measured:
[1] = target: T1, CtBP2 (C-terminal binding protein 2) (Homo sapiens, UniProt P56545); test: microscale thermophoresis; supported by DSF (Kd […])
T1 construct: full-length CtBP2 with strep-tag and HA-tag tandemly fused to the C-terminus (baculovirus)

[2] = target: T1, CtBP2 (C-terminal binding protein 2); test: as above; remark: listed apart in the source

| Compound | Kd [1] [µM] | Kd [2] [µM] |
| --- | --- | --- |
| NC(=O)C1=CN([C@@H]2O[C@H](COP(=O)(O)OP(=O)(O)OC[C@H]3O[C@@H](n4cnc5c(N)ncnc54)[C@H](O)[C@@H]3O)[C@@H](O)[C@H]2O)C=CC1 [NADH] | 19.5 ± 6.61 |  |
| CCCCCCCC/C=C\CCCCCCCC(=O)SCCNC(=O)CCNC(=O)[C@H](O)C(C)(C)COP(=O)(O)OP(=O)(O)OC[C@H]1O[C@@H](n2cnc3c(N)ncnc32)[C@H](O)[C@@H]1OP(=O)(O)O [oleoyl-CoA] |  | 18.8 ± 1.28 |

From publication PMC8563733, “The transcriptional corepressor CtBP2 serves as a metabolite sensor orchestrating hepatic glucose and lipid homeostasis” (Nature Communications, 2021)
